EC50, AC50 and IC50 data for seven compounds are collected here from ChEMBL document CHEMBL1201862, “PubChem BioAssay data set” (2004).

Activity calls are given as the source filed them. Bounds are passed on as bounds.

The target of experiment [1] is 5-hydroxytryptamine receptor 2A (Mus musculus, UniProt P35363). Type of experiment: functional, cell-based.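 Further: CHO-K1 cells with tagged receptor and beta-arrestin; agonist potency measured as compound-induced activation of the receptor.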
Experiment [2] has as its target Mu-type opioid receptor (Homo sapiens, UniProt P35372). The experiment is classed as functional, cell-based.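 Further: U2OS cells with beta-arrestin recruitment to OPRM1 by beta-gal complementation.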
Experiment [3] can be described thus: viability loss in CEM21 cells – cell-based, CellTiter-Glo luminescence, cherry-picked, cytotoxicity control for viral fusion inhibitor project, dose response (AID 652042).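 Further: potency for signal decrease meaning cytotoxicity.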 Type of experiment: functional. Background: In ATP-based viability assays light output follows the ATP content of the culture.
The target in experiment [4] is T1, Corticotropin-releasing factor receptor 2/Corticotropin-releasing factor-binding protein (Homo sapiens, UniProt P24387+Q13324).
T1 sequence (Q13324 whole entry): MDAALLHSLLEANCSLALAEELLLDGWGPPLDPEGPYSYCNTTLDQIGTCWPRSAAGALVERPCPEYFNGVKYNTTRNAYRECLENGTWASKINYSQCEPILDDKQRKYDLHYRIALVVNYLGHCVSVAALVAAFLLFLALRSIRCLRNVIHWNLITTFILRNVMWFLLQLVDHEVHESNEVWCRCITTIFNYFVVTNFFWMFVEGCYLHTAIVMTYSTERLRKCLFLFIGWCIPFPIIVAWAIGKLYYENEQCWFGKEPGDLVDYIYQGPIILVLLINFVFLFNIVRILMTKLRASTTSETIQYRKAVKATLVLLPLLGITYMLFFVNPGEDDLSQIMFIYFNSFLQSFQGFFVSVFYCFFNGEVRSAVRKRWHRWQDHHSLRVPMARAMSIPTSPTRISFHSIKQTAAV
T1 sequence (P24387 whole entry): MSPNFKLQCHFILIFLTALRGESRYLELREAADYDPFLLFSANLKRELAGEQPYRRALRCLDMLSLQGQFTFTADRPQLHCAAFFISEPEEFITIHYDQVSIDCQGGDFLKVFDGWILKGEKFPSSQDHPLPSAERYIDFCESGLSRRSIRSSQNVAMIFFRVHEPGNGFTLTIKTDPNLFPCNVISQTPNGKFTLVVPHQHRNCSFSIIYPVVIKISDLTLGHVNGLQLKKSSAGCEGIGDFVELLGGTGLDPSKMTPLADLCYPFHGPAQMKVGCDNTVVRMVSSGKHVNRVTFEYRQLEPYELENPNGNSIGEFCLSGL
The experiment in a line: Dose Response confirmation of uHTS hits for small molecule antagonists of the CRF-binding protein and CRF-R2 receptor complex. Type of experiment: functional. The settings on record: read-out: IC50_Mean.

Experiment [5] is described as follows: Luminescence Cell-Based Dose Response HTS to Identify Inhibitors of 5'UTR Stem-Loop Driven Prion Protein mRNA Translation in H4 Neuroglioblastoma Cells. [Related pubchem assays: 1827 (Project Summary), 1813 (Primary HTS)]. The experiment is classed as functional.
Experiment [6] is described as follows: alpha-synuclein stem-loop luciferase translation blockers – H4 neuroglioma cells, luminescence, confirmation (AID 1988). The experiment is classed as functional, cell-based.
For experiment [7], the target named is T1, Corticotropin-releasing factor receptor 2/Corticotropin-releasing factor-binding protein. Kind of experiment: activators of CRF receptor 2 with binding protein – uHTS hits, confirmation (AID 602473). Type of experiment: functional. The settings on record: read-out: EC50_Mean.
Experiment [8] can be described thus: luciferase reporter signal suppression in cells – H4 neuroglioma cells, luminescence, dose response (AID 1990). The experiment is classed as functional, cell-based. A general note: Reporter assays use an easily measured gene product as a stand-in for the process of interest.
Experiment [9] is described as follows: HIV-1 AD8 envelope cell-cell fusion blockers – cherry-pick, dose response (AID 652062).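 Further: luciferase signal from cell-cell fusion driven by HIV-1 clade B AD8 Env; potency is for inhibitors of fusion seen as a drop in luminescence.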 Type of experiment: functional, cell-based.
Experiment [10] has as its target T2, Replicative DNA helicase DnaB (Mycobacterium tuberculosis, UniProt P9WMR3).
T2 sequence (P9WMR3 whole entry): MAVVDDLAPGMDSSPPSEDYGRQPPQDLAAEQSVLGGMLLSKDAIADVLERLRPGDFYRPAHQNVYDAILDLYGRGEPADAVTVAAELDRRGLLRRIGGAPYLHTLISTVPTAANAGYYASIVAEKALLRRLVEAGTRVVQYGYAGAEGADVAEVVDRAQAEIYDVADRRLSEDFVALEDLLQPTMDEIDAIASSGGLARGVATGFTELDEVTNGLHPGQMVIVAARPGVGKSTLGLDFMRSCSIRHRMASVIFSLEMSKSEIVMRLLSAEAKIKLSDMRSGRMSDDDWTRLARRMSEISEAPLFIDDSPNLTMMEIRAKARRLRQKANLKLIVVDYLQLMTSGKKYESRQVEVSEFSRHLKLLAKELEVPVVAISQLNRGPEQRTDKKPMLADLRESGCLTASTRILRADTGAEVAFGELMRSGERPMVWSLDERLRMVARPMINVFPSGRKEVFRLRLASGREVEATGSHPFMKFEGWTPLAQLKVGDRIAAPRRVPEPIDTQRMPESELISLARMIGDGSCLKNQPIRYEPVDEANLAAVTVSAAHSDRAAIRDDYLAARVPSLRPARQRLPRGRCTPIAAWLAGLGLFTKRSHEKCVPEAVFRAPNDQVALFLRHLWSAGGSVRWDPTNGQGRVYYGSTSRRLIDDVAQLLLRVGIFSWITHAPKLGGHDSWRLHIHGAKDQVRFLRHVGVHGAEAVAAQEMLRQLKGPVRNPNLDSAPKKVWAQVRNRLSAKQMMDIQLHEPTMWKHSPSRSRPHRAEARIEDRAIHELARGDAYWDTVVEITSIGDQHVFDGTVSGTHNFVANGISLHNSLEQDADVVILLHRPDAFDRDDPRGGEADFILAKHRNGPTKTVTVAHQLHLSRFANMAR
The experiment in a line: DnaB intein splicing inhibitors, dose response, biochemical, cell-free fluorescence (AID 449749). Type of experiment: functional.

The target in experiment [11] is T3, Probable nicotinate-nucleotide adenylyltransferase (Staphylococcus aureus (strain N315), UniProt P65502). Type of experiment: functional, Staphylococcus aureus subsp. aureus N315. The settings on record: read-out: IC50_Mean.
For experiment [12], the target named is T3, Probable nicotinate-nucleotide adenylyltransferase. Type of experiment: functional, Staphylococcus aureus subsp. aureus N315.
Experiment [13] deals with T4, Protein RecA (Mycobacterium tuberculosis, UniProt P9WHJ3).
T4 sequence (P9WHJ3 whole entry): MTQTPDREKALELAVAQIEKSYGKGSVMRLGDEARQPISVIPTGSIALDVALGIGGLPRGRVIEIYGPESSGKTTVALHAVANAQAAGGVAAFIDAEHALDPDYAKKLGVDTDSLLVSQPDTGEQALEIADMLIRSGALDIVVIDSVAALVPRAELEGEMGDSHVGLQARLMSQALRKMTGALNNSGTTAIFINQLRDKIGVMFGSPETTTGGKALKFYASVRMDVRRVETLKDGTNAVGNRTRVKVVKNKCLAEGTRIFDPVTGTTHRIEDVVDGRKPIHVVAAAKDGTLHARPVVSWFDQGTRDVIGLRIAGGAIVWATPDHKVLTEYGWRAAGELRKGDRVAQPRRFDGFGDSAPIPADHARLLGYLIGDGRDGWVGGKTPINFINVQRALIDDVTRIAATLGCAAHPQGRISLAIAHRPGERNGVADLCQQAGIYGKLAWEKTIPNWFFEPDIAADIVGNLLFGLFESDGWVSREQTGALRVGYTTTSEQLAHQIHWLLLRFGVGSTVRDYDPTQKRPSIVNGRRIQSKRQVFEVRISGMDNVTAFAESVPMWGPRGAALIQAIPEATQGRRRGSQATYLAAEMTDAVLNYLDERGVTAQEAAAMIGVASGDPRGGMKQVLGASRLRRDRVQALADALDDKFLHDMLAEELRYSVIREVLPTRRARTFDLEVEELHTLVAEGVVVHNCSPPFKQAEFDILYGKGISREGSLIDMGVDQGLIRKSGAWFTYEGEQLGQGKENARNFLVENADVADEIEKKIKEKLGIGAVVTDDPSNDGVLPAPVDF
Kind of experiment: Fluorescence Cell-Free Homogeneous Dose Retest to Identify Inhibitors of RecA-Intein Splicing Activity. [Related pubchem assays (depositor defined):AID2097, AID2223, AID489010, AID492950]. The experiment is classed as functional.

A short description of experiment [14]: blockers of HIV-1 ZM109 envelope-driven cell-cell fusion – HeLa effector, CEM target cells, luciferase, cherry-pick, dose response (AID 652058).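 Further: luciferase signal from HIV-1 Env mediated cell-cell fusion of effector and target cells.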 Type of experiment: functional, cell-based.
Experiment [15] is described as follows: intracellular Trypanosoma cruzi inhibitors in host cells – cell-based, plate reader, cherry-pick samples, set 3, dose response (AID 651818).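 Further: compounds incubated with infected cells for about four days.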 The experiment is classed as functional.
The nature of experiment [16]: blockers of HIV-1 envelope-mediated cell-cell fusion – cherry-pick, dose response (AID 652057). The experiment is classed as functional, cell-based.
A short description of experiment [17]: off-target signal loss in HeLa-CEM21 co-culture – HeLa F-luc CTL cells, cherry-picked, counter-screen for HIV-1 Env fusion inhibitor project, dose response (AID 652040).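 Further: potency for signal decrease marking cytotoxic or nonspecific inhibition.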 Type of experiment: functional, cell-based. On the technique in general: The purpose of a counterscreen is to sort out artefacts and off-target activity.

5-hydroxytryptamine receptor 2A, sequence (P35363 whole entry): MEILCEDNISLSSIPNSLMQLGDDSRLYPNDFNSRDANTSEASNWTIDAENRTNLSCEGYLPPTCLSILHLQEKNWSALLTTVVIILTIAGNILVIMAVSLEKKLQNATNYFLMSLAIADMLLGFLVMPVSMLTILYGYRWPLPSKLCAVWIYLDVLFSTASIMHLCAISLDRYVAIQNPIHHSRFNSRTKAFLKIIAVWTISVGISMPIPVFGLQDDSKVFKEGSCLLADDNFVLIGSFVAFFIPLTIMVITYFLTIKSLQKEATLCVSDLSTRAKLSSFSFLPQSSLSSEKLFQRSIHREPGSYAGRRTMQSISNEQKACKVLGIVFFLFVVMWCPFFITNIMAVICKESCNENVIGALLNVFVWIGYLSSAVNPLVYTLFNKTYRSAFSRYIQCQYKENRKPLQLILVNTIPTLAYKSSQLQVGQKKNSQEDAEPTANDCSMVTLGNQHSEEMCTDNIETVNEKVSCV
Mu-type opioid receptor, sequence (P35372 whole entry, the tested form may be a part): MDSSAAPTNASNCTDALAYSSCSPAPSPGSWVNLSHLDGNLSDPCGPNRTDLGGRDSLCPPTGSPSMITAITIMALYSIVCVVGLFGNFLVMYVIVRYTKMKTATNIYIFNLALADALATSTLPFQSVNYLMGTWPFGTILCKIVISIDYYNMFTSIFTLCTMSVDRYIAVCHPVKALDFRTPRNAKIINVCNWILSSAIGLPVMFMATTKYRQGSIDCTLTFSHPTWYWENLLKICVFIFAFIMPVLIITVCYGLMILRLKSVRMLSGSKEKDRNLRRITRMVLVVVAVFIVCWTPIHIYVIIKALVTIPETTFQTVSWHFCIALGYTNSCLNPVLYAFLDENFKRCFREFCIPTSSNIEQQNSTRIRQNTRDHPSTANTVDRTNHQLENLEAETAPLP
T3 sequence (P65502 whole entry): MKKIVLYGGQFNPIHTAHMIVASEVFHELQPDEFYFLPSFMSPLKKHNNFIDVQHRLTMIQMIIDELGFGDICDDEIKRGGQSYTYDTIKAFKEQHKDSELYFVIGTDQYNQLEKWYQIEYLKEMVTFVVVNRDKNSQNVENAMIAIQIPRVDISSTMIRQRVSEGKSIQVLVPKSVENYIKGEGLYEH

In the case of `O=S(=O)(c1ccc(OCC(O)CN2CCN(c3ccccc3)CC2)cc1)N1CCOCC1` (stereo unspecified), the values for the EC50 in [1] and in experiment [2] were 0.481 µM (active) and 92.4 µM (inactive), respectively.

For the compound `CN(C)S(=O)(=O)c1ccc(Cl)c(NC(=O)CN2CCc3ccccc3C2)c1`, the EC50 was 1.75 µM (active) in experiment [1] and 92.5 µM (inactive) in experiment [2].

The term AC50 denotes the concentration at which the activity in the assay is half-maximal. For `COC(=O)c1ccc(C(=O)NC2CCCc3c2cnn3-c2ccc(C)c(C)c2)cc1` (stereo unspecified), the AC50 was 19.4 µM (active) in experiment [3] and 18.9 µM (active) in experiment [9]. Besides, the IC50 in experiment [4] is > 47.1 µM (inactive). In addition, the EC50 in [5] is > 120 µM (not active); in experiment [6], 0.997 µM (active); in experiment [7], > 53 µM (inactive); in [8] it was 8.89 µM (inconclusive).

With `O=C(NCCN1CCN(c2ccccc2F)CC1)C1CCCN(S(=O)(=O)c2c[nH]cn2)C1` (stereo unspecified), the EC50 in experiment [1] was 0.895 µM (active); in [2] it was 92.5 µM (inactive).

Turning to `O=C(Cc1cc(O)[nH]n1)N/N=C/C=C/c1ccccc1`, the AC50 in experiment [10] is 3.17 µM (active). Besides, the IC50 was 23.5 µM (active) in experiment [11] and 7.45 µM (active) in experiment [12]. Also, the EC50 in experiment [13] is 2.76 µM (active).

As for `C[C@@H]1CN([C@@H](C)CO)C(=O)c2cccc(NS(=O)(=O)c3ccc(F)cc3)c2O[C@@H]1CN(C)Cc1ccc(-c2ccccc2)cc1`, the AC50 was 48.1 µM (active) in experiment [3], 26.5 µM (active) in [14], 3.81 µM (active) in [15] and 22.4 µM (active) in experiment [16].

With `COC(=O)[C@@]12C[C@@H](CC(=O)NCc3cccc(C(F)(F)F)c3)C(=O)N(Cc3ccco3)C1=CCC(C)(C)C2`, the AC50 in experiment [3] is 50 µM (active); in experiment [14], 8.24 µM (active); in experiment [17] it was 8.92 µM (active); in experiment [9], 20.9 µM (active); in experiment [16] it was 4.26 µM (active).
